Measured values taken from patent US20250228757A1, “SUNSCREEN COMPOUNDS AND FORMULATIONS” (Oregon State University, priority 2024, published 2025).
Entries after “also recorded” stand apart in the source; their conditions may differ. Where two headings read alike, the source gives them in different places.

How the values were obtained:
[1] = UVB absorption assay; assay type: physicochemical; settings: for UVB absorption: time needed to reach a 5 mJ/cm^2 dose: in ethanol, 1, 10, 25, 50 μM
Procedure: MBITC or MBA was diluted in ethanol at 0, 1, 10, 25, and 50 μM, added to separate wells of a 24-well plate (Corning, Corning, NY, USA), and irradiated with UVB light using a UV Transilluminator 2000 (Bio-Rad, Hercules, CA, USA) to reach 5 mJ/cm^2 or 10 mJ/cm^2. A Daavlin X-96 irradiance meter (Daavlin, Bryan, OH, USA) measured energy transmittance through the dish. Each well was separately irradiated, and the time was measured to reach the specified energy density.

[2] = system: HaCaT cells; assay: UV protection dose-response MTS assay; assay type: cell-based, human
Procedure: (§1) Immortalized keratinocyte HaCaT cells (ATCC, Manassas, VA, USA) were cultured in DMEM supplemented with 5% fetal bovine serum. Human primary epidermal keratinocytes (HPEKs) (ATCC) were cultured in EpiLife medium (ThermoFisher Scientific) supplemented with Human Keratinocyte Growth Supplement (ThermoFisher Scientific). HPEKs were maintained below ten passages. Cell lines were incubated in a humidified environment at 37° C. with 5% CO2.
For UV protection dose-response assays, HaCaT cells were seeded 5000 cells/well into clear 96-well plates (Corning). After 24 h, cells were treated with MBITC or MBA at 0, 3.125, 6.25, 12.5, 25, or 50 µM and incubated for 12 h. Cells were washed in PBS and irradiated with 10 mJ/cm^2 UVB using a UV Transilluminator 2000. After irradiation, fresh media was added, cells incubated for 36 h, and viability was determined by MTS assay as before. HPEKs were seeded 5000 cells/well into black, opaque bottom 96-well plates (Greiner Bio-One, Monroe, NC, USA) and incubated for 48 h. Afterward, cells were treated with vehicle control or a 10-point half-log serial dilution of MBITC or MBA starting at 50 μM and incubated for 12 h. Before irradiation, the conditioned cell culture medium was re-moved from each well, retained, and PBS containing the same dose of EtOH or the compounds was added to the wells. Cells were irradiated with a 10 mJ/cm^2 dose using UVB TL 20W/12 RS M3 lights (Philips, Amsterdam, Netherlands). The dose of UVB was quantified using an IL1400A NIST Traceable Photometer (International Light, Peabody, MA, USA). Following irradiation, the PBS was aspirated from the wells, and conditioned media was added. After 36 h, CYQUANT® (ThermoFisher Scientific) assays were performed per the manufacturer's instructions, and fluorescent signal read using a Synergy4® (Biotek, Winooski, VT) plate reader. Cell counts were extrapolated from a standard curve of fluorescent signal activity vs. HPEK cell counts. Time kinetics involved the same compound and UVB treatment scheme as before, but CYQUANT® assays were performed at 24, 48, 72, or 96 h post-UVB irradiation.

[3] = system: cyclobutane pyrimidine dimers (CPDs) in HPEKs; assay: Immunocytochemistry for cyclobutane pyrimidine dimers after UVB; assay type: cell-based, human; settings: 12 h treatment, 5 mJ/cm^2 UVB
Procedure: HPEKs were cultured to 80% confluence in 6-well plates containing gelatin-coated coverslips and treated with ethanol vehicle control or MBA. After 12 h, the conditioned cell culture medium was removed, retained, and PBS containing EtOH or MBA was added to each well. Plates were then irradiated with 5 mJ/cm^2 UVB, PBS removed, conditioned media re-added, and incubated for 24 h. Cells were then fixed in 75% methanol/25% acetic acid, washed with 70% EtOH, and DNA denatured in 70 mM NaOH (in 70% EtOH). Wells were then washed 3 times with PBS and denaturation quenched with 100 mM Tris —HCl (in 70% EtOH). Cells were then blocked with 10% normal goat serum (NGS) in PBS-T and incubated overnight at 4° C. with α-thymine dimer primary antibody (1:1000, Kamiya Bio-medical, Matsumoto, Nagano, Japan) in NGS blocking buffer. […] Corrected total cellular fluorescence (CTCF) was quantified using the ImageJ software package as described previously, except only nuclear CTCF for CPD staining was quantified and nuclei were selected for ROIs using manual thresholding for each field (Carpenter et al., J Invest Dermatol 2022, 142:1903-1911). For all quantifications, cells on the edges of each field were excluded.

[4] = system: p-γH2A.X in HPEKs; assay: Immunoblotting for p-γH2A.X after UVB; assay type: cell-based, human; settings: 5 mJ/cm^2 UVB; for p-γH2A.X reduction: 1 μM (lowest tested dose); for p-γH2A.X staining: 25 and 50 μM (higher concentrations)
Procedure: HPEKs were cultured to 80% confluence in 6-well plates and treated with ethanol vehicle control or MBA. Cells were then irradiated in the same manner as immunocytochemistry samples. After 36 h, cells were harvested by scraping into cold PBS, centrifuged, pellet resuspended in denaturing SDS lysis buffer, boiled, and sonicated as described previously (Carpenter et al., Mol Carcinog 2019, 58:1680-1690). Samples were normalized to protein content as determined by BCA Assay (ThermoFisher Scientific). SDS-PAGE was then performed using 10% gels and transferred to a 0.45 μm nitrocellulose membrane (GE Healthcare, Chicago, IL, USA). Blots were blocked for 1 h in 5% nonfat dry milk in TBS-T and incubated with α-p-γH2A.X antibody (1:1000, Cell Signaling Technology, Danvers, MA, USA) or Actin (1:2000, Bethyl Laboratories, Inc., Montgomery, TX, USA) in 5% bovine serum albumin in TBS-T overnight at 4° C. The next day, blots were incubated with HRP-conjugated Goat anti-rabbit IgG or Goat anti-mouse IgG secondary antibodies (1:2000, Calbiochem, San Diego, CA, USA) for 1 h. The immunoblots were developed using chemiluminescent reagents (GE Healthcare) and imaged with a MyECL imager (ThermoFisher Scientific).

[5] = UV spectra; assay type: physicochemical; settings: UV spectrum
[6] = system: human primary epidermal keratinocytes (HPEKs); assay: UV protection CyQuant cell count assay (dose-response and time kinetics); assay type: cell-based; settings: 10 mJ/cm^2 UVB
Procedure: as §1
For UV protection dose-response assays, HaCaT cells were seeded 5000 cells/well into clear 96-well plates (Corning). After 24 h, cells were treated with MBITC or MBA at 0, 3.125, 6.25, 12.5, 25, or 50 µM and incubated for 12 h. Cells were washed in PBS and irradiated with 10 mJ/cm^2 UVB using a UV Transilluminator 2000. After irradiation, fresh media was added, cells incubated for 36 h, and viability was determined by MTS assay as before. HPEKs were seeded 5000 cells/well into black, opaque bottom 96-well plates (Greiner Bio-One, Monroe, NC, USA) and incubated for 48 h. […] The dose of UVB was quantified using an IL1400A NIST Traceable Photometer (International Light, Peabody, MA, USA). […] After 36 h, CYQUANT® (ThermoFisher Scientific) assays were performed per the manufacturer's instructions, and fluorescent signal read using a Synergy4® (Biotek, Winooski, VT) plate reader. […]

[7] = system: HaCaT cells; assay: Dose-response MTS viability assay without UVB; assay type: cell-based, human; settings: 48 h, 3.125-50 μM, absence of UVB irradiation
Procedure: as §1
(§2) For viability studies, HaCaT cells were seeded 5000 cells/well in clear 96-well plates (Corning, Corning, NY, USA). After 24 h, cells were treated with MBITC or MBA at 0, 3.125, 6.25, 12.5, 25, or 50 μM and incubated with the compounds for 48 h. Viability was then determined by MTS assay using CellTiter 96® AQueous One Solution Cell Proliferation Assay (Promega Corporation, Madison, WI, USA). Absorption was measured using Cytation® 5.0 Imaging Reader (Agilent, Santa Clara, CA, USA). HPEKs were seeded 5000 cells/well into white, opaque bottom 96-well plates (Greiner Bio-One) and incubated for 48 h. HPEKs were then treated with ethanol vehicle control or a 5-point half-log serial dilution of MBA starting at 50 μM. After 48 h, CellTiter-Glo® (Promega Corporation, Madison, WI) viability assays were performed per the manufacturer's instructions, and luminescence was read using a Synergy4 (Biotek, Winooski, VT) plate reader.

[8] = Solubility; assay type: physicochemical
[9] = system: human primary epidermal keratinocytes (HPEKs); assay: Dose-response CellTiter-Glo viability assay without UVB; assay type: cell-based; settings: 48 h, up to 50 μM, absence of UVB
Procedure: as §1, §2

[10] = system: HPEKs; settings: previous study, absence of UVB; cited from earlier work
[11] = system: human skin equivalents; settings: Carpenter et al. 2018; cited from earlier work
[12] = HaCaT, 12 h treatment, 10 mJ/cm^2 UVB, MTS after 36 h

Structure (SMILES): CCCCCCCCCCCCCC/C=C\CCCC(=O)NCc1cccc(OC)c1 [MBA, (Z)—N-(3-methoxybenzyl)eicos-5-enamide]
- UVB absorption: time needed to reach a 5 mJ/cm^2 dose [1]: only showed similar activity at a single concentration of 25 μM
- cytotoxic effects in the presence of UVB light [2, 12]: did not exhibit the same cytotoxic effects as the parental compound
- intensity of the CPD staining (CTCF) [3]: substantially decreased
- total number of CPD+ cells vs vehicle control [3]: small but significant difference
- p-γH2A.X reduction [4]: trend of reduced p-γH2A.X
- p-γH2A.X staining [4]: lack of elevated p-γH2A.X
- λmax [5]: 273 nm
- protective effect, time kinetics ([6]; incubation up to four days): did not reveal a protective effect
- prevention of UV-induced loss in proliferation (dose-response) ([6]; 12 h treatment, CyQuant): had the same effect as in HaCaT cells
- cytotoxicity (viability, MTS) [7]: little to no effect
- solubility in ethanol [8]: ethanol soluble
- cytotoxicity (viability, CellTiter-Glo) [9]: not cytotoxic at the tested doses

Structure (SMILES): COc1cccc(CN=C=S)c1 [MBITC, 3-methoxybenzyl isothiocyanate]
- UVB absorption: time needed to reach a 5 mJ/cm^2 dose [1]: sufficient to increase the time needed to reach a 5 mJ/cm^2 dose at every tested concentration except 50 μM, where the time significantly decreased
- UVB absorption capacity, compared ([1]; time needed to reach 5 or 10 mJ/cm^2): more UVB absorption capacity than MBA
- cytotoxic effects in HPEKs [10]: exhibited cytotoxic effects
- cytotoxic effects in the presence of UVB light [2]: displayed cytotoxic effects in the presence of UVB light
- protection from UVB-induced loss in proliferation [2, 12]: did not reverse the loss of proliferation
- p-γH2A.X reduction [4]: less reduction; also recorded: trend of reduced p-γH2A.X
- p-γH2A.X staining [4]: trend of increased p-γH2A.X staining compared to MBA
- λmax [5]: 273 nm
- UVB-induced DNA damage, proliferation, and matrix-metalloproteinase expression [11]: reduce

Structure (SMILES): COc1cccc(CCC#N)c1 [MPACN, 3-methoxybenzyl acetonitrile]
- UVB-induced DNA damage, proliferation, and matrix-metalloproteinase expression [11]: reduce
